Test results taken from US6669951B2, “Compositions and methods for enhancing drug delivery across and into epithelial tissues” (CellGate, Inc., priority 1999, dated 2003).
Read-outs that look alike come from different tables or passages of the source.

Columns and labels:
skin of nude mice = assay: Penetration of Cu-DTPA complexes into skin of nude mice; format: in vivo, mouse; conditions: 1 μM to 1 mM, abdominal region, 15, 30, 45 minutes
Excerpt: As controls, an equimolar amount of the Cu-DTPA complex was spotted onto the abdominal region.

[1] = Half-life / release of conjugate in buffer; format: physicochemical; conditions: for half-life: buffer
[2] = Drug blood levels after intracolonic injection (LC MS MS); format: in vivo, Wistar rats; conditions: intracolonic in PBS
Experimental: Wistar rats, females of approximately 200-300 g (Simonsen, Gilroy, Calif.), were anesthetized, their abdomens were shaved, midline incisions were made, and a one-half inch section of the ascending colon in each animal was tied off with sutures. Taxol and cyclosporin (5 mg/kg) were injected as solutions in a 1:1 v/v Cremophor EL:ethanol mixture, whereas equivalent molar amounts of the r7 conjugates were injected in PBS. In all cases, the volume injected was approximately 500λ. The colon was placed back into the cavity, and the incision was closed using sutures.
(§1) Clotting was inhibited by transferring the blood to glass tubes containing 100λ of 0.5% EDTA, and the blood was frozen.
Either taxol or cyclosporin was extracted from the whole blood using a modification of literature procedures. Briefly, whole blood (100λ) was transferred to a screw capped glass tube containing five mls of diethyl ether. The sample was vortexed vigorously for two minutes, centrifuged, and frozen in dry ice/methanol. The ethereal layer was transferred to another glass tube and the ether was evaporated. […] Samples were placed into a Perkin-Elmer series 200 autosampler and sequencially injected onto a C18 reverse column at 70° C. connected to a Shimadzu HPLC system, eluted with 70% methanol, 30% aqueous ammonium formate buffer, and the effluent was analyzed on a PE Sciex API 3000 tandem mass spectrometer.

[3] = test system: squamous epithelia of the oral cavity; assay: Penetration into squamous epithelia of the oral cavity; format: in vivo, mouse; conditions: fifteen minutes
Excerpt: To determine whether CellGate transporters could enter the squamous epithelia of the oral cavity, mice were anesthetized with Nembutal, their heads tipped to one side and solutions of the biotinylated peptides were placed in their mouths. After fifteen minutes the liquid was removed by pipette.
The capacity of the transporters to enter the squamous epithelial layers of the oral cavity was examined. A mouse was anesthetized, its head was tipped so that a solution of biotinylated r9 could be administered. The animal was kept in this position for fifteen minutes, at which time it was sacrificed, and the tongue and cheek were dissected, frozen, sectioned, stained with streptavidin-fluorescein, and counterstained with propidium iodide.

[4] = test system: epithelia of the gastrointestinal tract; assay: Gastrointestinal absorption protocol (histology); format: in vivo, mouse
Experimental: Experiments were performed on 8- to 10-week-old female Swiss Webster mice purchased from Taconic (Germantown, N.Y.). Mice were anesthetized with Nembutal and a midline incision was made along the abdomen. Intestines were measured, tied off at both ends of the desired section with sutures, and biotinylated peptides were injected into the lumen (approximately 100λ/inch). After a fifteen minute incubation, the tissue was removed and the lumen was gently washed with PBS.
Immediately following incubation with biotinylated peptides, the anesthetized rodents were sacrificed by cervical dislocation and the tied off sections of the GI tract were removed. The lumens of the various sections were filled with OCT using a plastic tipped syringe, immersed in OCT filled boats, and snap frozen in a 2-methyl-butane/dry ice solution. Frozen sections were allowed to warm slightly and 2 mm thick sagital cuts were made using a steel razor blade. The cuts were placed into OCT molds and snap frozen in a 2-methyl-butane/dry ice solution. Sections (5 μm) were cut on the cryostat, fixed in acetone at 4° C. for 10 minute, and allowed to air dry. After rehydration in PBS for 5 minutes, sections were blocked with normal horse serum, washed, incubated with streptavidin-FITC (20 μg/ml) for 30 minutes, washed, and mounted with mounting medium containing propidium iodide (PI).
After fifteen minutes of exposure, the relevant section of tissue was dissected, frozen, sectioned, and stained with Streptavidin fluorescein to define the location of the biotinylated peptide, and propidium iodide to counterstain all the nuclei in the section.

[5] = cited from earlier work
[6] = test system: human skin grafts on SCID mice; conditions: in vivo
Experimental: Samples (100 μl) were applied as a liquid within excipient and prevented from dispersing by a Vaseline™ barrier and allowed to penetrate for fifteen minutes. At the end of this period animal was sacrificed, the relevant section of skin was excised, embedded in mounting medium (OCT) and frozen. […] Slides were analyzed by fluorescent microscopy.

[7] = test system: CD3+ T cells in inflamed skin; conditions: mouse, in vivo
[8] = Blood levels after buccal delivery; format: in vivo, rat; conditions: 5 mg/kg in Cremophor EL:ethanol 1:1
Excerpt: as §1

[9] = test system: ear inflammation in Balb/c mice; assay: Murine contact dermatitis (DNFB), ear inflammation; format: in vivo, mouse
Experimental: Balb/c (6-7 weeks) mice were painted on the abdomen with 100 μl of 0.7% DNFB in acetone olive oil (95:5). Three days later both ears of the animals were restimulated with 0.5% DNFB in acetone. […] Ear inflammation was measured 24 hours after restimulation using a spring loaded caliper. The percent reduction of inflammation was calculated using the following formula […], where t=thickness of the treated ear, n=the thickness of a normal untreated ear, and u=thickness of an inflamed ear without any treatment. N=20 animals in each group.

[10] = test system: IL-2 secretion by Jurkat cells; assay: Inhibition of IL-2 secretion, PMA/ionomycin stimulated; format: cell-based, human
Experimental: T cells subsequently were stimulated to produce IL-2 by addition of 10 ng/ml PMA (Sigma, St. Louis, Mo.) and 1 μM ionomycin (CalBiochem, San Diego, Calif.). Cultures were incubated overnight at 37° C. and supernatants were collected and IL-2 was measured using a fluorescent ELISA. Briefly, plates were coated with 4 μg/ml anti-human IL-2 antibody (BD Pharmingen, San Diego, Calif.), blocked with PBS containing 10% FBS for 1 hour at room temperature, washed, and supernatants added and incubated for 1 hour. Media was removed and biotinylated anti-human IL-2 (1.6 μg/ml), was added for one hour. The plates were washed, and then europium labeled streptavidin (0.04 ng/ml) was added for one hour. After another wash, enhancement solution was added and the resulting fluorescence was measured using a Wallac plate reader (Wallac, Turku, Finland).
See R. Wiskocil, et al., J Immunol 134, 1599-603 (1985).

In the case of “Copper-diethylenetriaminepentaacetic Acid Complex [Cu-DTPA]”, the “colour on skin after wiping off” value (skin of nude mice) is reported as “not where the Cu-DTPA alone was spotted”.
With CC(=O)N[C@@H](CSCC(=O)O[C@@H](C(=O)O[C@H]1C[C@@]2(O)[C@@H](OC(=O)c3ccccc3)[C@@H]3[C@]4(OC(C)=O)CO[C@@H]4C[C@H](O)[C@@]3(C)C(=O)[C@H](OC(C)=O)C(=C1C)C2(C)C)[C@@H](NC(=O)c1ccccc1)c1ccccc1)C(=O)N[C@H](CCCNC(=N)N)C(=O)N[C@H](CCCNC(=N)N)C(=O)N[C@H](CCCNC(=N)N)C(=O)N[C@H](CCCNC(=N)N)C(=O)N[C@H](CCCNC(=N)N)C(=O)N[C@H](CCCNC(=N)N)C(=O)N[C@H](CCCNC(=N)N)C(N)=O [compound 14] the half-life ([1]; PBS, pH 7.4 at 37° C., read-out: half life (converted)) was 5 h and the “blood levels of taxol” value [2] was “did not result in significant blood levels of taxol within five hours”.
For N=C(N)NCCC[C@@H](NC(=O)[C@@H](CCCNC(=N)N)NC(=O)[C@@H](CCCNC(=N)N)NC(=O)[C@@H](CCCNC(=N)N)NC(=O)[C@@H](CCCNC(=N)N)NC(=O)[C@@H](CCCNC(=N)N)NC(=O)[C@@H](CCCNC(=N)N)NC(=O)[C@@H](CCCNC(=N)N)NC(=O)[C@@H](CCCNC(=N)N)NC(=O)CCCCCNC(=O)CCCC[C@@H]1SC[C@@H]2NC(=O)N[C@@H]21)C(N)=O [bio aca r9 CONH2], the “penetration into cheek and tongue” value [3] was “quickly and efficiently penetrated multiple layers of the epithelia”, the staining of duodenum ([4]; 100 μM injected into lumen, fifteen minutes) was “no detectable staining over background was observed” and the “staining of ascending and transverse colon” value ([4]; 100 μM, fifteen minutes) was “stained all surface areas of the villi, and penetrated several cell layers”. For the same compound, the staining of ileum ([4]; 100 μM, fifteen minutes) was “first sign of uniform staining”, the staining of jejunum ([4]; 100 μM, fifteen minutes) was “Poor staining” and the “uptake along the GI tract” value ([4]; mouse, in vivo) was “uptake increasing with distance from the gastric pylorus”.
In the case of CC(=O)O[C@@]12CO[C@@H]1C[C@H](O)[C@@]1(C)C(=O)[C@H](O)C3=C(C)[C@@H](OC(=O)[C@H](O)[C@@H](NC(=O)OC(C)(C)C)c4ccccc4)C[C@@](O)([C@@H](OC(=O)c4ccccc4)[C@H]21)C3(C)C [taxotere], the water solubility [5] is listed as 6 to 7 µg/mL.
In the case of C/C=C/C[C@@H](C)[C@@H](OC(=O)CSC[C@H](NC(=O)[C@@H](CCCNC(=N)N)NC(=O)[C@@H](CCCNC(=N)N)NC(=O)[C@@H](CCCNC(=N)N)NC(=O)[C@@H](CCCNC(=N)N)NC(=O)[C@@H](CCCNC(=N)N)NC(=O)[C@@H](CCCNC(=N)N)NC(=O)[C@@H](CCCNC(=N)N)NC(=O)CCCCCNC(=O)CCCC[C@@H]1SC[C@@H]2NC(=O)N[C@@H]21)C(N)=O)[C@H]1C(=O)N[C@@H](CC)C(=O)N(C)CC(=O)N(C)[C@@H](CC(C)C)C(=O)N[C@@H](C(C)C)C(=O)N(C)[C@@H](CC(C)C)C(=O)N[C@@H](C)C(=O)N[C@H](C)C(=O)N(C)[C@@H](CC(C)C)C(=O)N(C)[C@@H](CC(C)C)C(=O)N(C)[C@@H](C(C)C)C(=O)N1C [biotin r7 CsA, B-aca-r7-Cys-O-acyl-Cyclosporin A], the “penetration into human skin” value [6] is reported as “penetrated human epidermis and dermis” and the “presence in infiltrating T cells of inflamed skin” value [7] is reported as “found in all CD3[+] T cells in the tissue”.
In the case of CC(=O)O[C@H]1C(=O)[C@@]2(C)[C@H]([C@H](OC(=O)c3ccccc3)[C@]3(O)C[C@H](OC(=O)[C@H](O)[C@@H](NC(=O)c4ccccc4)c4ccccc4)C(C)=C1C3(C)C)[C@]1(OC(C)=O)CO[C@@H]1C[C@@H]2O [taxol, paclitaxel], the “appearance of taxol in blood after buccal administration” value [8] is reported as “appeared in the blood stream by the first time point”.
With C/C=C/C[C@@H](C)[C@@H](OC(=O)CN(Cc1ccccc1)C(=O)CNCC(=O)N[C@@H](CCCNC(=N)N)C(=O)N[C@@H](CCCNC(=N)N)C(=O)N[C@@H](CCCNC(=N)N)C(=O)N[C@@H](CCCNC(=N)N)C(=O)N[C@@H](CCCNC(=N)N)C(=O)N[C@@H](CCCNC(=N)N)C(=O)N[C@@H](CCCNC(=N)N)C(N)=O)[C@H]1C(=O)N[C@@H](CC)C(=O)N(C)CC(=O)N(C)[C@@H](CC(C)C)C(=O)N[C@@H](C(C)C)C(=O)N(C)[C@@H](CC(C)C)C(=O)N[C@@H](C)C(=O)N[C@H](C)C(=O)N(C)[C@@H](CC(C)C)C(=O)N(C)[C@@H](CC(C)C)C(=O)N(C)[C@@H](C(C)C)C(=O)N1C [releasable R7 CsA] the “reduction in ear inflammation” value ([9]; 0.01% topical) was 40.9%±3.3, the “reduction in ear inflammation” value ([9]; 0.1% topical) was 64.8%±4.0 and the “reduction in inflammation in the untreated ear” value ([9]; 1%) was “No reduction in inflammation was seen in the untreated ear”. The “reduction in ear inflammation” value ([9]; 1% topical, 1, 5 and 20 h after restimulation, measured 24 hours) was 73.9%±4.0, the “inhibition of IL-2 secretion” value ([10]; added 12 hours prior to PMA/ionomycin) was “dose dependent inhibition was observed” and the “EC50 relative to CsA dissolved in alcohol” value ([10]; added at the same time) was “approximately two”. For the same compound, the pH dependent stability ([1]; absence of serum) was “stable at acidic pH, but labile at physiological pH in the absence of serum” and the half-life ([1]; PBS pH 7.4 (37° C. where stated), read-out: half-life) was 1.5 h.
